Laboratory results from US20120202856A1, “SUBSTITUTED BENZIMDAZOLE DERIVATIVES USEFUL AS TRPM8 RECEPTOR MODULATORS” (priority 2011, published 2012).
Where “and” joins values, the source holds several entries; their conditions need not be identical. Equal entries are not always repeated. Structures can show the parent of a compound that is named as a salt. Where two headings read alike, the source gives them in different places.

Biological target: T1, canine TRPM8 (Canis lupus familiaris, UniProt Q1A7N1)
T1 construct: expressed in transfected cells
T1 sequence (Q1A7N1 1-1104): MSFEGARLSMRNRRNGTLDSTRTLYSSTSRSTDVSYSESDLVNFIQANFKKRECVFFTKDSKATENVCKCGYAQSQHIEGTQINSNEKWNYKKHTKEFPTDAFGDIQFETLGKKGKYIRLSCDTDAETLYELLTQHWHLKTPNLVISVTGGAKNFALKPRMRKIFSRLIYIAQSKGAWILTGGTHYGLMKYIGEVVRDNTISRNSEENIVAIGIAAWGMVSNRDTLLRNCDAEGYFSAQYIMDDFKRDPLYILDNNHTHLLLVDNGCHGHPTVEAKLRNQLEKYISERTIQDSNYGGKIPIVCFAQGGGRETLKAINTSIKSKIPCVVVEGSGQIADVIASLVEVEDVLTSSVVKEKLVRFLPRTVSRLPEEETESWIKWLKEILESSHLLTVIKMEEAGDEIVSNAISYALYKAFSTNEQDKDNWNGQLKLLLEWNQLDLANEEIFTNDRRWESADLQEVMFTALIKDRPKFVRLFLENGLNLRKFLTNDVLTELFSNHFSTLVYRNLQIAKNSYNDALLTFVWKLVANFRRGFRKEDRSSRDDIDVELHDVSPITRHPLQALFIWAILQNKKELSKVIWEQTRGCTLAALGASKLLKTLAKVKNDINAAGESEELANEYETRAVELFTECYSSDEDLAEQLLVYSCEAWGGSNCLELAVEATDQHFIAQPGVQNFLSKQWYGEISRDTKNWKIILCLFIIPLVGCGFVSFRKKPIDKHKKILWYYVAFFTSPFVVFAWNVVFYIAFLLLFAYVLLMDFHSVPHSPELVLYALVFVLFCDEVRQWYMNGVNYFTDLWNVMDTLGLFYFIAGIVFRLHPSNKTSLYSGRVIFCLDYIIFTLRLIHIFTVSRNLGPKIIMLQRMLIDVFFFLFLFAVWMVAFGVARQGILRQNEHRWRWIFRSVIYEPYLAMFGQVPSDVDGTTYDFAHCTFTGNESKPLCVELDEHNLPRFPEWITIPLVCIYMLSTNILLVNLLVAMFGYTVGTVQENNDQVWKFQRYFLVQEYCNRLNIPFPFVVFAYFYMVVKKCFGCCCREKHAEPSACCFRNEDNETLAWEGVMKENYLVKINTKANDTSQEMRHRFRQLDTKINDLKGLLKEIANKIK
Assay: In Vitro Canine TRPM8 Functional Assay (intracellular Ca2+ fluorescence, icilin activation, HEK293 cells)
Format: cell-based
Details: for IC50: HEK293 cells expressing canine TRPM8, icilin activation, individually measured values (batches/salt forms), read-out: IC50 (nM), in vitro TRP M8 Activity; for inhibition at 0.2 µM: individually measured values
Procedure, shortened: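 Inhibition of icilin-evoked calcium influx measured by Calcium 3 fluorescence (FLIPR or FDSS) in canine TRPM8 HEK293 cells. After basal subtraction, data expressed as percent of maximum; quadruplicate means fitted by sigmoidal dose–response to give IC50.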

[1] = HEK293, 0.2 μM test compound, read-out: % Inh (%) @0.2 μM, in vitro TRP M8 Activity

SMILES | IC50 | inhibition at 0.2 µM [1] | inhibition at 0.2 µM (HEK293, read-out: % Inh (%) @0.2 μM, in vitro TRP M8 Activity, 0.2 μM test compound)
Cc1c(C(C)(C)C)nn(C)c1-c1nc2cc(-c3c(F)cccc3OC(F)(F)F)cc(C(F)(F)F)c2[nH]1 [Compound 123, 2-(5-tert-Butyl-2,4-dimethyl-2H-pyrazol-3-yl)-5-(2-fluoro-6-trifluoromethoxy-phenyl)-7-trifluoromethyl-1H-benzimidazole hydrochloride] | 7.9 nM |  | 
Cc1c(C(C)(C)C)nn(C)c1-c1nc2cc(-c3ccccc3Cl)cc(Cl)c2[nH]1 [Compound 134, 2-(5-tert-Butyl-2,4-dimethyl-2H-pyrazol-3-yl)-7-chloro-5-(2-chloro-phenyl)-1H-benzimidazole hydrochloride] | 5.6 nM and 10.9 nM | 99% | 
CC(C)(C)c1cc(-c2nc3cc(-c4c(F)cccc4F)ccc3[nH]2)on1 [Compound 67, 2-(3-tert-Butyl-isoxazol-5-yl)-5-(2,6-difluoro-phenyl)-1H-benzimidazole trifluoroacetic acid salt] | 15.3 nM and 16.7 nM |  | 
CC(C)(C)c1cc(-c2nc3cc(-c4ccccc4F)ccc3[nH]2)on1 [Compound 66, 2-(3-tert-Butyl-isoxazol-5-yl)-5-(2-fluoro-phenyl)-1H-benzimidazole trifluoroacetic acid salt] | 24 nM and 35.7 nM |  | 
COc1cccc(F)c1-c1ccc2[nH]c(-c3cnc(C(C)(C)C)n3C)nc2c1 [Compound 70, 2-(2-tert-Butyl-3-methyl-3H-imidazol-4-yl)-5-(2-fluoro-6-methoxy-phenyl)-1H-benzimidazole trifluoroacetic acid salt] | 134 nM |  | 
CC(C)(C)c1cc(-c2nc3cc(-c4ccccc4C#N)ccc3[nH]2)on1 [Compound 69, 2-[2-(3-tert-Butyl-isoxazol-5-yl)-1H-benzimidazol-5-yl]-benzonitrile trifluoroacetic acid salt] | 20.5 nM |  | 
COc1ccccc1-c1ccc2[nH]c(-c3cc(C(C)(C)C)no3)nc2c1 [Compound 8, 2-(3-tert-Butylisoxazol-5-yl)-5-(2-methoxyphenyl)-1H-benzimidazole sodium salt] | 11.1 nM and 8 nM |  | 
Cn1nc(C(C)(C)C)c(Cl)c1-c1nc2cc(-c3c(C(F)(F)F)cccc3C(F)(F)F)ccc2[nH]1 [Compound 87, 5-(2,6-Bis-trifluoromethyl-phenyl)-2-(5-tert-butyl-4-chloro-2-methyl-2H-pyrazol-3-yl)-1H-benzimidazole hydrochloride] | 5.7 nM and 8.6 nM |  | 
COc1ccccc1-c1ccc2[nH]c(-c3cc(C4CC4)no3)nc2c1 [Compound 15, 2-(3-cyclopropylisoxazol-5-yl)-5-(2-methoxyphenyl)-1H-benzimidazole sodium salt] | 70 nM |  | 
CC(C)Cc1cc(-c2nc3ccc(-c4ccccc4OC(F)(F)F)cc3[nH]2)on1 [Compound 23, 2-(3-Isobutylisoxazol-5-yl)-6-(2-trifluoromethoxyphenyl)-1H-benzimidazole hydrochloride] | 30 nM |  | 
CC(C)(C)c1cc(-c2nc3cc(-c4c(F)cccc4F)cc(C(F)(F)F)c3[nH]2)on1 [Compound 140, 2-(3-tert-Butyl-isoxazol-5-yl)-5-(2,6-difluoro-phenyl)-7-trifluoromethyl-1H-benzimidazole sodium salt] | 4.5 nM and 7.4 nM |  | 100%
Cc1c(C(C)(C)C)noc1-c1nc2cc(-c3ccccc3Cl)ccc2[nH]1 [Compound 107, 2-(3-tert-Butyl-4-methyl-isoxazol-5-yl)-5-(2-chloro-phenyl)-1H-benzimidazole hydrochloride] | 11.9 nM |  | 
CC(C)(C)c1cc(-c2nc3cc(-c4ccccc4Cl)cc(C(F)(F)F)c3[nH]2)on1 [Compound 141, 2-(3-tert-Butyl-isoxazol-5-yl)-5-(2-chloro-phenyl)-7-trifluoromethyl-1H-benzimidazole hydrochloride] | 5.4 nM and 8.7 nM | 99% | 
Cn1nc(C2CCC2)cc1-c1nc2cc(-c3ccccc3OC(F)(F)F)ccc2[nH]1 [Compound 38, 2-(5-Cyclobutyl-2-methyl-2H-pyrazol-3-yl)-5-(2-trifluoromethoxy-phenyl)-1H-benzimidazole sodium salt] | 55.8 nM |  | 
